Data taken from US10159684B2, “Pharmaceutical compositions for preventing glucocorticoid-induced corneal thinning” (INSERM (INSTITUT NATIONAL DE LA SANTE ET DE LA RECHERCHE …, priority 2013, dated 2018).

Legend:
[1] = tested on: mice with MR overexpression in keratinocytes; test: MR antagonist given during pregnancy to mice with MR overexpression in keratinocytes (K5-MR); format: in vivo; conditions: pregnant mice received the MR antagonist all along pregnancy; two litters
Excerpt: To test whether the reduced epidermal thickness is related to excessive MR activation in this mouse model, we administered an antagonist of the mineralocorticoid receptor during pregnancy of the mice. […] The question arises to know which MR ligand activates the MR in this condition. Because of the absence of HSD2 (the enzyme that inactivates glucocorticoids) in the epidermis (Kenouch S, Lombes M, Delahaye F, Eugene E, Bonvalet J P, Farman N. Human skin as target for aldosterone: coexpression of mineralocorticoid receptors and 11 beta-hydroxysteroid dehydrogenase. J Clin Endocrinol Metab. 1994: 79(5): 1334-41), it is likely that MR bound ligand is endogenous corticosterone, rather than aldosterone.

human skin explants = test: Organotypic culture of human skin explants, epidermal thickness; format: cell-based; conditions: clobetasol 100 nM plus MR blocker 10 micromolar, 6 days, air/liquid interface; FIG. 3
Method: Human skin explants grown as organotypic culture represent a valuable model to study cx vivo epidermal homeostasis. Skin punches (3 mm) were made (accupunch) from human skin (discarded during mammary gland surgery) and placed in organotypic culture as explants (air/liquid interface) in 2 ml DMEM and 10% decomplemented charcoal-stripped foetal bovine scrum to remove steroids for 6 days, in the presence of clobetasol (100 nM) alone or together with spironolactone or canrenoate (potassium canrenoate) (10 micromolar) or solvent alone (0.1% ethanol).

normal adult mice = test: Glucocorticoid-induced reduction of epidermal thickness in normal adult mice, topical application over the back pelage; format: in vivo; conditions: 7 days; for epidermal thickness, MR antagonist added to clobetasol: spironolactone 10 mM added to clobetasol 0.1 mM solution, FIG. 2
Method: In another set of experiments, we used normal adult mice that were treated by application of glucocorticoid (clobetasol, as 0.1 mM ethanol solution) alone or together with spironolactone (10 mM) over the back pelage, during 7 days.

Structure (SMILES) | epidermal thickness of double-transgenic pups (histology) [1] | skin appearance of double-transgenic pups [1] | thickness of the epidermis, MR blocker together with clobetasol (human skin explants) | epidermal thickness, glucocorticoid alone (normal adult mice; clobetasol 0.1 mM ethanol solution, topical over back pelage) | epidermal thickness, MR antagonist added to clobetasol (normal adult mice; topical) | epidermal thickness, MR antagonist added to clobetasol (normal adult mice; topical, listed as Spironolactone) | epidermal thickness, MR antagonist alone (normal adult mice; spironolactone alone, topical)
C[C@]12CCC(=O)C=C1C=C[C@@H]1[C@@H]2CC[C@@]2(C)[C@H]1CC[C@@]2(O)CCC(=O)O [Canrenoate, potassium canrenoate] | histologically normal epidermal thickness | normal skin appearance | increase the thickness of the epidermis |  |  |  | 
C[C@H]1C[C@H]2[C@@H]3CCC4=CC(=O)C=C[C@]4(C)[C@@]3(F)[C@@H](O)C[C@]2(C)[C@@]1(O)C(=O)CCl [Clobetasol, clobetasol] |  |  |  | drastic reduction of epidermal thickness |  |  | 
CC(=O)S[C@@H]1CC2=CC(=O)CC[C@]2(C)[C@H]2CC[C@@]3(C)[C@@H](CC[C@@]34CCC(=O)O4)[C@H]12 [spironolactone, 17-hydroxy-7α-mercapto-3-oxo-17α-pregn-4-ene-21-carboxylic acid γ-lactone acetate] |  |  | increase the thickness of the epidermis |  | reduction in epidermal thickness induced in mice by the glucocorticoid clobetasol was limited | significantly increased epidermal thickness | had no effect
